Laboratory results reported in patent publication US6677310B1, “Ring-expanded nucleosides and nucleotides” (Nabi, priority 1999, dated 2004).
Values after ≈ are worked out from the molar mass of the structure shown. “Also recorded” adds a separate entry of the source.

Key:
[1] = Neutral red uptake assay, stationary HFF cells; assay type: cell-based; settings: human, read-out: Cytotoxicity (IC50), Neutral Red Uptake
Protocol: (B) Neutral Red Uptake Assay: Twenty-four hours prior to assay, HFF cells were plated into 96-well plates at a concentration of 2.5×10^4 cells/well. After 24 h, the media was aspirated, and […] of media containing drug was added to the first row of wells and then diluted serially 1:5 using the automated Cetus Liquid Handling System. The plates were then incubated in a Co2 incubator at 37° C. for 7 days. At this time the media/drug was removed, cells were washed, 200 μL/well of 0.01% neutral red in PBS was added, and the mixture was incubated for 1 h. The dye was removed, and the cells were washed using a Nunc Plate Washer. After the wash was removed, […] of 50% ethanol/1% aqueous acetic acid was added. The plates were placed on a rotating shaker for 15 min, and the optical densities were then read at 540 nm using a plate reader.
(§1) Data Analysis: Dose-response relationships were constructed by linearly regressing the percent inhibition of parameters derived in the preceding sections against log drug concentrations. Fifty-percent inhibitory (IC50) concentrations were calculated from the regression lines.

P3HR-1 strain of EBV = experiment: Viral capsid antigen (VCA) / EBV immunofluorescence assay in Daudi cells; assay type: cell-based, Epstein-Barr virus; settings: for SI (Selectivity Index), Daudi Cells: IC50 (Daudi cells) divided by anti-EBV EC50; for SI (Selectivity Index), Neutral Red Uptake: IC50 (neutral red, stationary HFF) divided by anti-EBV EC50; for SI (Selectivity Index), HFF Cells: IC50 (rapidly growing HFF) divided by anti-EBV EC50; for EC50: human gammaherpesvirus 4, Daudi cells, read-out: Antiviral Activity (EC50), anti-EBV
Protocol: After virus adsorption, the cells were washed and pelleted, and the supernatant was discarded. The drugs to be tested were serially diluted in RPMI-1640 and added to the appropriate tubes. The cultures were incubated for 2 days in complete medium to allow viral gene expression. Following the 48 h incubation period, a number of cells of each sample were counted and washed in phosphate-buffered saline (PBS), and slides were prepared. The slides were dried overnight. The dried cells were fixed with acetone. A monoclonal antibody to viral capsid antigen (VCA) was then added to the cells, incubated for 30 min at 37° C., and washed in PBS. This was followed by a fluorescein-conjugated goat anti-mouse IgG antibody. The cells were counterstained with. Evans Blue. A total of 500 negative and fluorescence positive cells were counted. The total number of VCA positive cells in the cultures was calculated and EC50 values determined using Microsoft Excel Software.
as §1

[2] = Cell proliferation assay, rapidly growing HFF cells; assay type: cell-based; settings: human, rapidly growing human foreskin fibroblast (HFF) cells; for IC50 at 72 h: rapidly growing HFF cells, read-out: Cytotoxicity (IC50), HFF Cells
Protocol: (§2) The toxicity of Compounds 14-1 and 14-2 was also measured in rapidly growing human foreskin fibroblast (HFF) cells and Daudi cells by cell proliferation assay (National Institute of Allergy and Infectious Diseases (NIAID), NIH, Bethesda, Md.). According to the assay method, the appropriate cells were seeded in six-well plates in MEM containing 10% FBS. Twenty four hours later, the cells were treated with several dilutions of the test compounds covering a range of 0.03-100 μg/ml. The plates were incubated in a CO2 incubator at 37° C. for 72h. The cells were washed after removing the media and subsequently released from the plate wells by the addition of 1 ml of 0.25% trypsin. The contents in the wells were mixed, diluted with Isotone III and counted using a Coulter counter. The CC50 values (concentration of compound giving 50% inhibition of cell proliferation) were calculated by linear regression analysis. Toxicity of Compound 14-1 was also evaluated in bone marrow precursor cells by previously published procedure (Sommadossi, J.-P., et al., Biochem. Pharmacol., 44:1921-1925, 1992).
(§3) (A) Cell Proliferation Assay: Twenty-four hours prior to assay, cells (HFF or Daudi) were seeded in six-well plates at a concentration of 2.5×10^4 cells per well in MEM containing 10% FBS. On the day of the assay, drugs were diluted serially in MEM containing 10% FBS at increments of 1:5 covering a range from […]. For drugs that had to be solubilized in DMSO, control wells receive MEM containing 10% DMSO. The media from the wells was then aspirated, and 2 mL of each drug concentration was added to each well. The cells were incubated in a CO2 incubator at 37° C. for 72 h. At the end of this time, the media-drug solution was removed, and the cells were washed. Trypsin-EDTA (0.25%, 1 mL) was added to each well and incubated until the cells started to come off the plate. The cell-media mixture was then pipeted up and down vigorously to break up the cell suspension and 0.2 mL of the mixture added to 9.8 mL of Isoton III and the cells were counted using a Coulter Counter. Each sample was counted three times with two replicate wells per sample. The IC50 values were calculated using a computer program.

[3] = Cell proliferation assay, rapidly growing Daudi cells; assay type: cell-based; settings: human; for IC50 at 72 h: rapidly growing Daudi cells, read-out: Cytotoxicity (IC50), Daudi Cells
Protocol: as §2, §3

[4] = biological target: T1, adenosine deaminase from calf intestinal mucosa (Bos taurus, UniProt P56658); experiment: Adenosine deaminase assay (Example 17); assay type: biochemical; settings: Lineweaver-Burk plots; with and without preincubation
T1 construct: against adenosine deaminase from calf intestinal mucosa; from tissue; host or cells: calf intestinal mucosa
T1 sequence (P56658 whole entry): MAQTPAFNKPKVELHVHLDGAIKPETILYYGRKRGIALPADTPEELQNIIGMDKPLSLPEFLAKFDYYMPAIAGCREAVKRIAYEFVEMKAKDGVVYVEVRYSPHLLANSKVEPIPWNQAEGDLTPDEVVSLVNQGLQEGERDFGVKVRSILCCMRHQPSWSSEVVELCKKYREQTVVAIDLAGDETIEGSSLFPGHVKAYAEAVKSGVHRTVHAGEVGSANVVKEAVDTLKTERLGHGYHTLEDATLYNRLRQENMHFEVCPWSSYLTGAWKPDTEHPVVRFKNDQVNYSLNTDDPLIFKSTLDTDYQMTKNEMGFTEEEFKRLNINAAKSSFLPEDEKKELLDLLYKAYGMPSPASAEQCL
Protocol: Inhibition of adenosine deaminase (ADA) by Compound 17-1 and Compound 17-2 (see FIG. 13 for chemical structures; note that structure 1 FIG. 13 is the same as that in figure except that it is written in an anti-conformation in the former) was investigated in vitro against adenosine deaminase from calf intestinal mucosa in a 50 mM phosphate buffer (pH=7.4) at 25° C., by spectro-photometrically monitoring the rate of hydrolysis of substrate adenosine at 265 nm. Stock solutions of the substrate, enzyme, and inhibitors were prepared using a 50 mM phosphate buffer (pH 7.4). The enzyme kinetics was followed by measuring the change in optical density (decrease in absorbance) per minute of the substrate adenosine. By keeping the concentration of the inhibitor constant, and by varying the substrate concentration, a set of kinetic data was obtained. Additional sets of data were generated using different concentrations of the inhibitor. […]
(a) pre-incubation of the enzyme with the inhibitor; here the enzyme (ADA 10 μL) and inhibitor were preincubated for 10 min in a calculated amount of phosphate buffer (50 mM, pH 7.5 ) at 25° C. and the reaction was initiated by the addition of substrate, adenosine, and (b) without preincubation; here the reaction was started by addition of ADA (10 μL) to a mixture of adenosine and inhibitor in the phosphate buffer at 25° C. […]

[5] = biological target: T2, guanine deaminase (guanase) from rabbit liver (Oryctolagus cuniculus, UniProt G1T386); experiment: Guanine deaminase assay (Example 17); assay type: biochemical; settings: Lineweaver-Burk plots
T2 construct: from tissue; host or cells: rabbit liver
T2 sequence (G1T386 1-454): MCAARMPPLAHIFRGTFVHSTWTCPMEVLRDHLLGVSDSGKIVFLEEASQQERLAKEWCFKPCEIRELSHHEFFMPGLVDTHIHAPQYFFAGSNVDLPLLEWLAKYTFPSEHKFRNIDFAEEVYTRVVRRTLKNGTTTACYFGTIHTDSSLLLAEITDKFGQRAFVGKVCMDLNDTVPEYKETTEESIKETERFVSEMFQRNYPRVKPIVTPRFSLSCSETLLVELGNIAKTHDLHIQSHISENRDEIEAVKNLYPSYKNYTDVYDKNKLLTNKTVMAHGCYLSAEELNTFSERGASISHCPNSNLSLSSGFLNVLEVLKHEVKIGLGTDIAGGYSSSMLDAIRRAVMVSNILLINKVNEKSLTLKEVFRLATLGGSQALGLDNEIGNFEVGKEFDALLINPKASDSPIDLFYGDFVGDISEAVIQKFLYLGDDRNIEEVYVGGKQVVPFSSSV
Protocol: Stock solutions of the substrate, enzyme, and inhibitors were prepared using a 50 mM Tris-HCl buffer (pH 7.4). The enzyme kinetics was followed by measuring the change in optical density (decrease in absorbance) per minute of the substrate guanine. By keeping the concentration of the inhibitor constant, and by varying the substrate concentration, a set of kinetic data was obtained. Additional sets of data were generated using different concentrations of the inhibitor. The substrate concentration in each assay ranged 6-20 μM; a total of six different concentrations were employed. The inhibitor concentration used in each assay was 30 or 40 μM. The amount of enzyme used in each assay was 0.0076 unit. The Ki for inhibition assays was computed from Lineweaver-Burk plots. The Lineweaver-Burk plot (1/V vs 1/[S]), as well as the linear regression analysis of kinetic data, were performed using the program Quattro Pro (version 6.01) for Windows.™.

O=C1c2ncn(Cc3ccccc3)c2N(Cc2ccccc2)C(=O)CN1Cc1ccccc1 [Compound 18-1, 3,4,7-Tribenzyl-4,5,7,8-tetrahydro-6H-imidazo[4,5-e][1,4]diazepine-5,8-dione]
IC50 at 7 days [1]: > 100 µg/mL | SI (Selectivity Index), Daudi Cells (P3HR-1 strain of EBV): >12 | SI (Selectivity Index), Neutral Red Uptake (P3HR-1 strain of EBV): >24 | SI (Selectivity Index), HFF Cells (P3HR-1 strain of EBV): >24 | EC50 (P3HR-1 strain of EBV): 4.1 µg/mL (≈ 9.39 µM) | melting point: 170 to 172 °C | IC50 at 72 h [2]: > 100 µg/mL | IC50 at 72 h [3]: > 50 µg/mL

O=C1NCC(=O)N(Cc2ccccc2)c2c1nc(Br)n2Cc1ccccc1 [Compound 18-2, 3,4-Dibenzyl-2-bromo-4,5,7,8-tetrahydro-6H-imidazo[4,5-e][1,4]diazepine-5,8-dione]
IC50 at 7 days [1]: > 100 µg/mL | SI (Selectivity Index), Daudi Cells (P3HR-1 strain of EBV): >6 | SI (Selectivity Index), Neutral Red Uptake (P3HR-1 strain of EBV): >12 | SI (Selectivity Index), HFF Cells (P3HR-1 strain of EBV): >12 | EC50 (P3HR-1 strain of EBV): 8.3 µg/mL (≈ 19.5 µM) | melting point: 239 to 241 °C | IC50 at 72 h [2]: > 100 µg/mL | IC50 at 72 h [3]: > 50 µg/mL

Nc1nc2c(ncn2COCCO)c(=O)[nH]1 [Aciclovir, reference compound]
IC50 at 7 days [1]: > 100 µg/mL | SI (Selectivity Index), Daudi Cells (P3HR-1 strain of EBV): >62 | SI (Selectivity Index), Neutral Red Uptake (P3HR-1 strain of EBV): >125 | SI (Selectivity Index), HFF Cells (P3HR-1 strain of EBV): >125 | EC50 (P3HR-1 strain of EBV): 0.8 µg/mL (≈ 3.55 µM) | CC50 at 72 h ([2]; Rapidly growing HFF cells): > 100 µg/mL | IC50 at 72 h [2]: > 100 µg/mL | CC50 at 72 h ([3]; Rapidly growing Daudi cells): > 50 µg/mL | IC50 at 72 h [3]: > 50 µg/mL

N=c1nc(N)c2ncn(COCCO)c2c(N)n1 [Compound 17-2]
mode of inhibition of adenosine deaminase [4]: competitive inhibitor; also recorded: reversible inhibitor | inhibition of guanine deaminase (guanase), mode [5]: competitive inhibitor
